{"source": "patent US7935853B2", "about": "“Micronized composition of a 2,4-disubstituted phenol derivative” (priority 2008, dated 2011)", "tested_on": "arthritis induced by injection of type II collagen in the mouse", "test": "Model of arthritis induced by type II collagen in mice (CIA), hind paw plethysmometry", "type": "in vivo", "conditions": "for Total hind paw volume (sum of both hind paws) / Oedema (difference in paw volume from basal values on day 21) in both hind paws: group mean n=10, listed as Group E; for percentage inhibition of oedema versus the control group: 10 mg/kg BID", "procedure": "The aim of the study was to determine the anti-inflammatory activity of the test item in a model of arthritis induced by injection of type II collagen in the mouse (CIA) and to compare the activity of two different formulations: micronized and non-micronized.\nInduction of arthritis was carried out by an initial exposure to type II bovine collagen by a subcutaneous injection at the base of the tail (induction phase).\nAfter a recovery time of 21 days, animals received a booster injection and approximately 4-5 weeks after the first injection there was an immune response with arthritis appearing in the extremities in the majority of the cases.\nFour experimental groups were used in the study with 10 animals in each group:\nGroup D: Positive control: FCA+vehicle B.I.D.\nGroup E: Micronized Test Item (Micro) 10 mg/kg B.I.D.\nGroup F: Non-Micronized test item 10 mg/kg B.I.D.\nGroup G: Reference item: Indomethacin 1 mg/kg Q.D.\nThe dose administered to groups E and F was 10 mg/kg.\nThe dose administered to group G was 1 mg/kg.\nThe doses of the test and reference items were expressed as mg/Kg of compound administered to each animal.\nThe test and reference items were administered in a solution of methylcellulose (0.25%: vehicle).\nThe positive control group received the vehicle (methylcellulose 0.25%).\nThe test and reference items, as well as the vehicle were administered orally at a dosing volume of 5 mls/kg.\nThe route of administration used was oral by use of an intragastric cannula.\nOn the day of start of the study each mouse was injected subcutaneously at the base of the tail with a first dose of 0.1 ml of an emulsion of bovine type II collagen (1 mg/mL) in Freund's Complete Adjuvant. Afterwards, on day 21 after this first injection, a second booster injection of type II collagen was administered to all animals. In this occasion the collagen suspension was done using Incomplete Freund's Adjuvant.\nCoinciding with the second booster injection on day 21 treatment with the test or reference items was started to the corresponding animals.\nTreatment with the test or reference items was carried out for 31 consecutive days (days 21-51 of the experimental period). Additionally, a recovery period was included at the end of the treatment period from day 52 to day 65 in order to evaluate the duration of any anti-inflammatory effect observed once dosing has been terminated.\nThe animals' hind paw volume was measured by plethysmometry one day before the 1st injection of collagen, again one day before the second (booster) collagen injection (basal values) and then daily after administration of test/reference item until the end of the study. During the recovery period at the end of the study, hind paw volume was measured three times per week.\nAdditionally the data was also represented graphically, depicting changes in total hind paw volume, as well as oedema (differences from basal (day 21) values).", "key": {"[1]": {"conditions": "day 22, oral treatment days 21-51"}, "[2]": {"conditions": "day 23, oral treatment days 21-51"}, "[3]": {"conditions": "day 26, oral treatment days 21-51"}, "[4]": {"conditions": "day 27, oral treatment days 21-51"}, "[5]": {"conditions": "day 29, oral treatment days 21-51"}, "[6]": {"conditions": "day 30, oral treatment days 21-51"}, "[7]": {"conditions": "day 33, oral treatment days 21-51"}, "[8]": {"conditions": "day 34, oral treatment days 21-51"}, "[9]": {"conditions": "day 35, oral treatment days 21-51"}, "[10]": {"conditions": "day 36, oral treatment days 21-51"}, "[11]": {"conditions": "day 37, oral treatment days 21-51"}, "[12]": {"conditions": "day 40, oral treatment days 21-51"}, "[13]": {"conditions": "day 41, oral treatment days 21-51"}, "[14]": {"conditions": "day 42, oral treatment days 21-51"}, "[15]": {"conditions": "day 43, oral treatment days 21-51"}, "[16]": {"conditions": "day 44, oral treatment days 21-51"}, "[17]": {"conditions": "day 47, oral treatment days 21-51"}, "[18]": {"conditions": "day 48, oral treatment days 21-51"}, "[19]": {"conditions": "day 49, oral treatment days 21-51"}, "[20]": {"conditions": "day 50, oral treatment days 21-51"}, "[21]": {"conditions": "day 51, oral treatment days 21-51"}, "[22]": {"conditions": "day 54, recovery period after treatment days 21-51"}, "[23]": {"conditions": "day 56, recovery period after treatment days 21-51"}, "[24]": {"conditions": "day 58, recovery period after treatment days 21-51"}, "[25]": {"conditions": "day 61, recovery period after treatment days 21-51"}, "[26]": {"conditions": "day 63, recovery period after treatment days 21-51"}, "[27]": {"conditions": "day 65, recovery period after treatment days 21-51"}}, "data": [{"molecule": "Oc1c(I)cc(I)cc1I", "note": "[Micronized, 2,4,6-triiodophenol]", "values": [{"measurement": "Total hind paw volume (sum of both hind paws)", "setting": "day 0, before collagen and treatment", "value": 0.169}, {"measurement": "Total hind paw volume (sum of both hind paws)", "setting": "day 20, basal, before treatment", "value": 0.238}, {"measurement": "Oedema (difference in paw volume from basal values on day 21) in both hind paws", "setting": "[1]", "value": 0.006}, {"measurement": "Total hind paw volume (sum of both hind paws)", "setting": "[1]", "value": 0.244}, {"measurement": "Oedema (difference in paw volume from basal values on day 21) in both hind paws", "setting": "[2]", "value": "−0.010"}, {"measurement": "Total hind paw volume (sum of both hind paws)", "setting": "[2]", "value": 0.228}, {"measurement": "Oedema (difference in paw volume from basal values on day 21) in both hind paws", "setting": "[3]", "value": 0.014}, {"measurement": "Total hind paw volume (sum of both hind paws)", "setting": "[3]", "value": 0.252}, {"measurement": "Oedema (difference in paw volume from basal values on day 21) in both hind paws", "setting": "[4]", "value": "−0.007"}, {"measurement": "Total hind paw volume (sum of both hind paws)", "setting": "[4]", "value": 0.231}, {"measurement": "Oedema (difference in paw volume from basal values on day 21) in both hind paws", "setting": "[5]", "value": "−0.003"}, {"measurement": "Total hind paw volume (sum of both hind paws)", "setting": "[5]", "value": 0.234}, {"measurement": "Oedema (difference in paw volume from basal values on day 21) in both hind paws", "setting": "[6]", "value": "−0.001"}, {"measurement": "Total hind paw volume (sum of both hind paws)", "setting": "[6]", "value": 0.237}, {"measurement": "Oedema (difference in paw volume from basal values on day 21) in both hind paws", "setting": "[7]", "value": "−0.007"}, {"measurement": "Total hind paw volume (sum of both hind paws)", "setting": "[7]", "value": 0.231}, {"measurement": "Oedema (difference in paw volume from basal values on day 21) in both hind paws", "setting": "[8]", "value": "−0.010"}, {"measurement": "Total hind paw volume (sum of both hind paws)", "setting": "[8]", "value": 0.228}, {"measurement": "Oedema (difference in paw volume from basal values on day 21) in both hind paws", "setting": "[9]", "value": 0.012}, {"measurement": "Total hind paw volume (sum of both hind paws)", "setting": "[9]", "value": 0.250}, {"measurement": "Oedema (difference in paw volume from basal values on day 21) in both hind paws", "setting": "[10]", "value": 0.006}, {"measurement": "Total hind paw volume (sum of both hind paws)", "setting": "[10]", "value": 0.244}, {"measurement": "Oedema (difference in paw volume from basal values on day 21) in both hind paws", "setting": "[11]", "value": 0.001}, {"measurement": "Total hind paw volume (sum of both hind paws)", "setting": "[11]", "value": 0.239}, {"measurement": "Oedema (difference in paw volume from basal values on day 21) in both hind paws", "setting": "[12]", "value": 0.026}, {"measurement": "Total hind paw volume (sum of both hind paws)", "setting": "[12]", "value": 0.263}, {"measurement": "Oedema (difference in paw volume from basal values on day 21) in both hind paws", "setting": "[13]", "value": 0.018}, {"measurement": "Total hind paw volume (sum of both hind paws)", "setting": "[13]", "value": 0.256}, {"measurement": "Oedema (difference in paw volume from basal values on day 21) in both hind paws", "setting": "[14]", "value": 0.003}, {"measurement": "Total hind paw volume (sum of both hind paws)", "setting": "[14]", "value": 0.241}, {"measurement": "Oedema (difference in paw volume from basal values on day 21) in both hind paws", "setting": "[15]", "value": 0.006}, {"measurement": "Total hind paw volume (sum of both hind paws)", "setting": "[15]", "value": 0.244}, {"measurement": "Oedema (difference in paw volume from basal values on day 21) in both hind paws", "setting": "[16]", "value": 0.001}, {"measurement": "Total hind paw volume (sum of both hind paws)", "setting": "[16]", "value": 0.238}, {"measurement": "Oedema (difference in paw volume from basal values on day 21) in both hind paws", "setting": "[17]", "value": 0.016}, {"measurement": "Total hind paw volume (sum of both hind paws)", "setting": "[17]", "value": 0.254}, {"measurement": "percentage inhibition of oedema versus the control group", "setting": "day 48, P<0.05", "value": "68.72±8.98", "unit": "%"}, {"measurement": "Oedema (difference in paw volume from basal values on day 21) in both hind paws", "setting": "[18]", "value": 0.016}, {"measurement": "Total hind paw volume (sum of both hind paws)", "setting": "[18]", "value": 0.254}, {"measurement": "Oedema (difference in paw volume from basal values on day 21) in both hind paws", "setting": "[19]", "value": 0.023}, {"measurement": "Total hind paw volume (sum of both hind paws)", "setting": "[19]", "value": 0.261}, {"measurement": "percentage inhibition of oedema versus the control group", "setting": "day 50, P<0.05", "value": "70.56±9.88", "unit": "%"}, {"measurement": "Oedema (difference in paw volume from basal values on day 21) in both hind paws", "setting": "[20]", "value": 0.017}, {"measurement": "Total hind paw volume (sum of both hind paws)", "setting": "[20]", "value": 0.255}, {"measurement": "percentage inhibition of oedema versus the control group", "setting": "day 51, highly significant", "value": "77.59±9.08", "unit": "%"}, {"measurement": "Oedema (difference in paw volume from basal values on day 21) in both hind paws", "setting": "[21]", "value": 0.013}, {"measurement": "Total hind paw volume (sum of both hind paws)", "setting": "[21]", "value": 0.251}, {"measurement": "Oedema (difference in paw volume from basal values on day 21) in both hind paws", "setting": "[22]", "value": 0.032}, {"measurement": "Total hind paw volume (sum of both hind paws)", "setting": "[22]", "value": 0.270}, {"measurement": "Oedema (difference in paw volume from basal values on day 21) in both hind paws", "setting": "[23]", "value": 0.022}, {"measurement": "Total hind paw volume (sum of both hind paws)", "setting": "[23]", "value": 0.259}, {"measurement": "percentage inhibition of oedema versus the control group", "setting": "day 56, P<0.05", "value": "71.49±7.19", "unit": "%"}, {"measurement": "Oedema (difference in paw volume from basal values on day 21) in both hind paws", "setting": "[24]", "value": 0.030}, {"measurement": "Total hind paw volume (sum of both hind paws)", "setting": "[24]", "value": 0.268}, {"measurement": "percentage inhibition of oedema versus the control group", "setting": "day 58, P<0.05", "value": "66.29±5.13", "unit": "%"}, {"measurement": "Oedema (difference in paw volume from basal values on day 21) in both hind paws", "setting": "[25]", "value": 0.030}, {"measurement": "Total hind paw volume (sum of both hind paws)", "setting": "[25]", "value": 0.27}, {"measurement": "Oedema (difference in paw volume from basal values on day 21) in both hind paws", "setting": "[26]", "value": 0.026}, {"measurement": "Total hind paw volume (sum of both hind paws)", "setting": "[26]", "value": 0.26}, {"measurement": "Oedema (difference in paw volume from basal values on day 21) in both hind paws", "setting": "[27]", "value": 0.029}, {"measurement": "Total hind paw volume (sum of both hind paws)", "setting": "[27]", "value": 0.27}, {"measurement": "percentage inhibition of oedema versus the control group", "setting": "day 65, P<0.05", "value": "64.95±7.58", "unit": "%"}]}]}
